In patent US10450317B2, “Notch pathway signaling inhibitor compounds” (Eli Lilly and Company, priority 2015, dated 2019):
Marks after values point to notes of the source that are not given here.

How the values were obtained:
[1] = system: hair cell markers Atoh1, Pou4f3, Myo7A in gentamicin-damaged organ of Corti explants; assay: Organ of Corti explant, gene expression analysis after ototoxic (gentamicin) damage; assay type: cell-based, mice; conditions: 5 μM after gentamicin (100 μM) damage, n = 11
Procedure: A variation of the organ of Corti organotypic explant culture is used to model hair cell regeneration in response to subsequent compound treatment after ototoxic damage. This damage model is carried out according to the method described in Korrapati et al., PLOSOne, 2013, 8(8), e73276 where a 95% reduction in mid-apical hair cells was reported. On Day 0, to damage and selectively kill hair cells within the organ of Corti explant, aminoglycoside treatment (gentamicin (100 μM)) is added for 18-24 hours. On Day 1, gentamicin is removed and treatment with Compound 1, Isomer 2 and Compound 2, Isomer 2 at 5 μM began. Explant culture continues for 4 days total at which point the culture is prepared for the qRT-PCR protocol described above. Visible confirmation of gentamicin-induced damage is easily observed between cultures treated with negative control compounds. However, quantitative measurement for the response to Compound 1, Isomer 2 and Compound 2, Isomer 2 treatment following ototoxic damage obtained by qRT-PCR measured increases in gene expression for prosensory hair cell markers Atoh1 and Pou4f3 and the hair cell marker Myo7A.
Data represent the percent increase in gene expression relative to negative control-treated samples with the gentamicin-induced hair cell damage. (*, significant difference from negative control, p<0.05)

mAtoh1 = assay: Induction of mAtoh1 expression in otic spheres (qRT-PCR); assay type: cell-based, mice; conditions: 7 days, fold-induction relative to DMSO control, ± SEM
Procedure: Generally, organ of Corti cell isolation is carried out on Day 0, largely by the method in Oshima et al., Methods Mol Biol., 2009; 493: 141-162. Cell culture and propagation are carried out for 3-4 days. Cell plating and test compound treatment takes place on Day 3 or 4. Attachment and differentiation is allowed to take place over the next 7 days. On Days 10 or 11, cell lysis and RNA isolation is carried out. TagMan qRT-PCR is carried out on Day 12 and the results analyzed on Days 13-15 for Atoh1 and Tbp1 expression.
Surrounding tissue from the petrous portion of the temporal bone are removed from 1 to 4 day-old postnatal mice (transgenic strain: mAtoh1-driven nGFP; Lumpkin E A, et al., Gene Expr Patterns, 2003; (36): 389-95 of both sexes. The conch shaped cochlea is separated from the vestibular system using forceps. At this stage of development, the bony labyrinth is not completely calcified and is easily dissected using forceps. Carefully open the bony labyrinth of the cochlea and remove the spiral ligament and attached organ of Corti coiled together along the spiral of the modiolus by unwinding apically from the modiolus. Starting at the base, separate the spiral ligament from the organ of Corti using fine forceps.
Transfer the dissected organ of Corti (OC) into individual 1.5 ml tubes filled with 850 ice cold HBSS. Transfer up to 12 OC tissues into the same tube, Quick-spin down OC tissues and remove the HBSS. Disassociate the cells by adding 100 μl pre-warmed TrypLE™ Select (Life Technologies) and incubate at 37° C. for 13 min. Quick spin down dissociated OC tissues. Remove TrypLE™ Select. Add 100 μl of Medium A (DMEM/F12, N2 supplement (LifeTechnologies), B27 supplement (LifeTechnologies), ampicillin (50 μg/ml) and Fungizone (LifeTechnologies), EGF (20 ng/ml), bFGF (10 ng/ml), IGF-1 50 ng/ml), and heparan sulfate (50 ng/ml)). The dissected and digested tissue is then triturated with a P200 pipette tip. Remove any cell aggregates and debris; transfer the cell suspension and wash through a pre-wetted 70 μm cell strainer to pool the cell suspension in a single fresh culture tube. Rinse dissociation tubes and the cell strainer with sufficient Medium A and pool with the cell suspension. Count cell density with hemocytometer or Countess® (Life Technologies). Add fresh Medium A to cell suspension to achieve a final plating density of 1.0E5 cell/ml and plate into ultra-low attachment cultureware, T-75 (Greiner).
The dissociated, single cells are cultured in an ultra-low attachment cultureware, (Greiner) in Medium A for 3 to 4 days in a 5% CO2 humidified incubator at 37° C. to obtain clonally grown spheres, termed first generation spheres, from the floating cells. If cells stick to the non-adherent dishes during the culture period they can be dislodged by gentle mixing.
After culturing the spheres for 3-4 days, visually count the spheres by microscope to standardize the seeding density of otic spheres per ml for this step. Collect the cells by centrifugation and re-suspend spheres in Basic Medium at a concentration of approximately 2000 spheres per ml. Seed the spheres in a volume of 150 μl per well of a cell culture-treated 96 well plate to obtain approximately 300 spheres per well. Treat the spheres with experimental agents in quadruplicate at a final volume of 200 μl in Basic Medium (DMEM/F12, N2 supplement (LifeTechnologies) B27 supplement (LifeTechnologies), ampicillin (50 μg/ml) and Fungizone (LifeTechnologies). Culture the treated spheres for 7 days in a humidified temperature controlled incubator at 5% CO2, 37° C. Remove medium and proceed with RNA extraction.
Add buffer RLT plus (Qiagen) supplemented with 1% Beta-mercaptoethanol, 175 μl per well. Add 2.5 μl of 4 ng/μl of RNA carrier (RNeasy® Plus Micro Kit; Qiagen) diluted in Buffer RLT Plus into each well before RNA extraction. Total RNA is extracted using the RNeasy® Plus Micro Kit (Qiagen) according to the manufacturer's instructions. […]

| SMILES | % Induction Over Control-treated Damaged Organ of Corti, Atoh1 (Mean ± SEM) [1] | % Induction Over Control-treated Damaged Organ of Corti, Myo7A (Mean ± SEM) [1] | % Induction Over Control-treated Damaged Organ of Corti, Pou4f3 (Mean ± SEM) [1] | RQ at 10 nM (Atoh1 expression) (mAtoh1) | RQ at 100 nM (Atoh1 expression) (mAtoh1) | RQ at 1 μM (Atoh1 expression) (mAtoh1) |
| --- | --- | --- | --- | --- | --- | --- |
| COc1ccc2c(c1)N1CCC(C)(C)C1=CC(=O)C2NC(=O)[C@H](C)NC(=O)CCC(F)(F)F (single isomer, unassigned) [Compound 1, Isomer 2] | 242 ± 16; % | 102 ± 18; 0.0522% | 114 ± 25; <0.05* % | 1.43 ± 0.17 | 1.76 ± 0.17 | 1.64 ± 0.13 |
| C[C@H](NC(=O)CCC(F)(F)F)C(=O)NC1C(=O)C=C2N(CCC2(C)C)c2ncccc21 (single isomer, unassigned) [Compound 2, Isomer 2] | 169 ± 24; <0.05* % | 52 ± 15; not signif. % | 28 ± 11; 0.0633% | 1.14 ± 0.07 | 1.21 ± 0.13 | 1.57 ± 0.11 |
